What was measured:
Assay type in all cases: in vivo
[1] = system: Amaranthus retoflexus (AMARE); assay: Post-emergence herbicidal glasshouse test; conditions: for percentage damage caused to the plant, five-point scale, AMARE: post-emergence, 250 g/ha, 13 days after application; for % phytotoxicity AMARE: comparative post-emergence test
Method: (§1) Seeds of a variety of test species are shown in standard soil in pots Amaranthus retoflexus (AMARE), Ipomoea hederacea (IPOHE), Solanum nigrum (SOLNI), Lolium perenne (LOLPE). Echinochloa crus-galli (ECHCG), Setaria faberi (SETFA)). After cultivation for one day (pre-emergence) or after 8 days cultivation (post-emergence) under controlled conditions in a glasshouse (at 24/16° C., day/night; 14 hours light; 65% humidity), the plants are sprayed with an aqueous spray solution derived from the formulation of the technical active ingredient in acetone/water (50:50) solution containing 0.5% Tween 20 (polyoxyethylene sorbitan monolaurate, CAS RN 9005-64-5). Compounds are applied at 250 g/ha unless otherwise stated. The test plants are then grown in a glasshouse under controlled conditions in a glasshouse (at 24/16° C., day/night; 14 hours light; 65% humidity) and watered twice daily. After 13 days for pre and post-emergence, the test is evaluated for the percentage damage caused to the plant. The biological activities are shown in the following table on a five-point scale (5=81-100%; 4=61-80%; 3=41-60%; 2=21-40%; 1=0-20%).
(§2) Using the experimental conditions outlined above, a further test is conducted to compare the herbicidal properties of the difluro containing compound (1.014) with a representative compound (C1) referred to in GB901553. The compounds are applied at 1000 g/ha and 500 g/ha. The test is evaluated for the percentage damage caused to the plant (% phytotoxicity).

Solanum nigrum (SOLNI) [2] = assay: Post-emergence herbicidal glasshouse test; conditions: for percentage damage caused to the plant, five-point scale, SOLNI: post-emergence, 250 g/ha, 13 days after application; for % phytotoxicity SOLNI: comparative post-emergence test
Method: as §1, §2

[3] = system: Ipomoea hederacea (IPOHE); assay: Post-emergence herbicidal glasshouse test; conditions: for percentage damage caused to the plant, five-point scale, IPOHE: post-emergence, 250 g/ha, 13 days after application; for % phytotoxicity IPOHE: comparative post-emergence test
Method: as §1, §2

Setaria faberi (SETFA) [4] = assay: Post-emergence herbicidal glasshouse test; conditions: for percentage damage caused to the plant, five-point scale, SETFA: post-emergence, 250 g/ha, 13 days after application; for % phytotoxicity SETFA: comparative post-emergence test
Method: as §1, §2

Lolium perenne (LOLPE) [5] = assay: Post-emergence herbicidal glasshouse test; conditions: for percentage damage caused to the plant, five-point scale, LOLPE: post-emergence, 250 g/ha, 13 days after application; for % phytotoxicity LOLPE: comparative post-emergence test
Method: as §1, §2

[6] = system: Echinochloa crus-galli (ECHCG); assay: Post-emergence herbicidal glasshouse test; conditions: for percentage damage caused to the plant, five-point scale, ECHCG: post-emergence, 250 g/ha, 13 days after application; for % phytotoxicity ECHCG: comparative post-emergence test
Method: as §1, §2

[7] = system: Amaranthus retoflexus (AMARE); assay: Pre-emergence herbicidal glasshouse test; conditions: for percentage damage caused to the plant, five-point scale, AMARE: pre-emergence, 250 g/ha, 13 days after application; for % phytotoxicity AMARE: comparative pre-emergence test
Method: as §1, §2

Solanum nigrum (SOLNI) [8] = assay: Pre-emergence herbicidal glasshouse test; conditions: for percentage damage caused to the plant, five-point scale, SOLNI: pre-emergence, 250 g/ha, 13 days after application; for % phytotoxicity SOLNI: comparative pre-emergence test
Method: as §1, §2

[9] = system: Ipomoea hederacea (IPOHE); assay: Pre-emergence herbicidal glasshouse test; conditions: for percentage damage caused to the plant, five-point scale, IPOHE: pre-emergence, 250 g/ha, 13 days after application; for % phytotoxicity IPOHE: comparative pre-emergence test
Method: as §1, §2

Setaria faberi (SETFA) [10] = assay: Pre-emergence herbicidal glasshouse test; conditions: for percentage damage caused to the plant, five-point scale, SETFA: pre-emergence, 250 g/ha, 13 days after application; for % phytotoxicity SETFA: comparative pre-emergence test
Method: as §1, §2

Lolium perenne (LOLPE) [11] = assay: Pre-emergence herbicidal glasshouse test; conditions: for percentage damage caused to the plant, five-point scale, LOLPE: pre-emergence, 250 g/ha, 13 days after application; for % phytotoxicity LOLPE: comparative pre-emergence test
Method: as §1, §2

[12] = system: Echinochloa crus-galli (ECHCG); assay: Pre-emergence herbicidal glasshouse test; conditions: for percentage damage caused to the plant, five-point scale, ECHCG: pre-emergence, 250 g/ha, 13 days after application; for % phytotoxicity ECHCG: comparative pre-emergence test
Method: as §1, §2

## O=C(O)C(F)(F)c1cc(Cl)cc(Cl)c1 [Compound 1.007]
[1]
  percentage damage caused to the plant, five-point scale, AMARE: 3 (3=41-60%)
Solanum nigrum (SOLNI) [2]
  percentage damage caused to the plant, five-point scale, SOLNI: 3 (3=41-60%)
[3]
  percentage damage caused to the plant, five-point scale, IPOHE: 1 (1=0-20%)
Setaria faberi (SETFA) [4]
  percentage damage caused to the plant, five-point scale, SETFA: 1 (1=0-20%)
Lolium perenne (LOLPE) [5]
  percentage damage caused to the plant, five-point scale, LOLPE: 1 (1=0-20%)
[6]
  percentage damage caused to the plant, five-point scale, ECHCG: 1 (1=0-20%)
[7]
  percentage damage caused to the plant, five-point scale, AMARE: 1 (1=0-20%)
Solanum nigrum (SOLNI) [8]
  percentage damage caused to the plant, five-point scale, SOLNI: 1 (1=0-20%)
[9]
  percentage damage caused to the plant, five-point scale, IPOHE: 1 (1=0-20%)
Setaria faberi (SETFA) [10]
  percentage damage caused to the plant, five-point scale, SETFA: 1 (1=0-20%)
Lolium perenne (LOLPE) [11]
  percentage damage caused to the plant, five-point scale, LOLPE: 1 (1=0-20%)
[12]
  percentage damage caused to the plant, five-point scale, ECHCG: 1 (1=0-20%)

## O=C(O)C(F)(F)c1ccccc1Cl [Compound 1.011]
[1]
  percentage damage caused to the plant, five-point scale, AMARE: 5 (5=81-100%)
Solanum nigrum (SOLNI) [2]
  percentage damage caused to the plant, five-point scale, SOLNI: 5 (5=81-100%)
[3]
  percentage damage caused to the plant, five-point scale, IPOHE: 3 (3=41-60%)
Setaria faberi (SETFA) [4]
  percentage damage caused to the plant, five-point scale, SETFA: 1 (1=0-20%)
Lolium perenne (LOLPE) [5]
  percentage damage caused to the plant, five-point scale, LOLPE: 1 (1=0-20%)
[6]
  percentage damage caused to the plant, five-point scale, ECHCG: 1 (1=0-20%)
[7]
  percentage damage caused to the plant, five-point scale, AMARE: 5 (5=81-100%)
Solanum nigrum (SOLNI) [8]
  percentage damage caused to the plant, five-point scale, SOLNI: 4 (4=61-80%)
[9]
  percentage damage caused to the plant, five-point scale, IPOHE: 4 (4=61-80%)
Setaria faberi (SETFA) [10]
  percentage damage caused to the plant, five-point scale, SETFA: 2 (2=21-40%)
Lolium perenne (LOLPE) [11]
  percentage damage caused to the plant, five-point scale, LOLPE: 1 (1=0-20%)
[12]
  percentage damage caused to the plant, five-point scale, ECHCG: 1 (1=0-20%)

## O=C(O)C(F)(F)c1cc(Cl)ccc1Cl [Compound 1.012]
[1]
  percentage damage caused to the plant, five-point scale, AMARE: 4 (4=61-80%)
Solanum nigrum (SOLNI) [2]
  percentage damage caused to the plant, five-point scale, SOLNI: 4 (4=61-80%)
[3]
  percentage damage caused to the plant, five-point scale, IPOHE: 3 (3=41-60%)
Setaria faberi (SETFA) [4]
  percentage damage caused to the plant, five-point scale, SETFA: 1 (1=0-20%)
Lolium perenne (LOLPE) [5]
  percentage damage caused to the plant, five-point scale, LOLPE: 1 (1=0-20%)
[6]
  percentage damage caused to the plant, five-point scale, ECHCG: 1 (1=0-20%)
[7]
  percentage damage caused to the plant, five-point scale, AMARE: 4 (4=61-80%)
Solanum nigrum (SOLNI) [8]
  percentage damage caused to the plant, five-point scale, SOLNI: 3 (3=41-60%)
[9]
  percentage damage caused to the plant, five-point scale, IPOHE: 3 (3=41-60%)
Setaria faberi (SETFA) [10]
  percentage damage caused to the plant, five-point scale, SETFA: 1 (1=0-20%)
Lolium perenne (LOLPE) [11]
  percentage damage caused to the plant, five-point scale, LOLPE: 1 (1=0-20%)
[12]
  percentage damage caused to the plant, five-point scale, ECHCG: 1 (1=0-20%)

## O=C(O)C(F)(F)c1cccc(Cl)c1Cl [Compound 1.014]
[1]; 500 g/ha
  % phytotoxicity AMARE: 100%
[1]; 1000 g/ha
  % phytotoxicity AMARE: 100%
[1]
  percentage damage caused to the plant, five-point scale, AMARE: 5 (5=81-100%)
Solanum nigrum (SOLNI) [2]; 500 g/ha
  % phytotoxicity SOLNI: 100%
Solanum nigrum (SOLNI) [2]; 1000 g/ha
  % phytotoxicity SOLNI: 100%
Solanum nigrum (SOLNI) [2]
  percentage damage caused to the plant, five-point scale, SOLNI: 5 (5=81-100%)
[3]; 500 g/ha
  % phytotoxicity IPOHE: 90%
[3]; 1000 g/ha
  % phytotoxicity IPOHE: 90%
[3]
  percentage damage caused to the plant, five-point scale, IPOHE: 5 (5=81-100%)
Setaria faberi (SETFA) [4]; 500 g/ha
  % phytotoxicity SETFA: 90%
Setaria faberi (SETFA) [4]; 1000 g/ha
  % phytotoxicity SETFA: 90%
Setaria faberi (SETFA) [4]
  percentage damage caused to the plant, five-point scale, SETFA: 5 (5=81-100%)
Lolium perenne (LOLPE) [5]; 500 g/ha
  % phytotoxicity LOLPE: 10%
Lolium perenne (LOLPE) [5]; 1000 g/ha
  % phytotoxicity LOLPE: 20%
Lolium perenne (LOLPE) [5]
  percentage damage caused to the plant, five-point scale, LOLPE: 1 (1=0-20%)
[6]; 500 g/ha
  % phytotoxicity ECHCG: 80%
[6]; 1000 g/ha
  % phytotoxicity ECHCG: 90%
[6]
  percentage damage caused to the plant, five-point scale, ECHCG: 5 (5=81-100%)
[7]; 500 g/ha
  % phytotoxicity AMARE: 90%
[7]; 1000 g/ha
  % phytotoxicity AMARE: 100%
[7]
  percentage damage caused to the plant, five-point scale, AMARE: 5 (5=81-100%)
Solanum nigrum (SOLNI) [8]; 500 g/ha
  % phytotoxicity SOLNI: 100%
Solanum nigrum (SOLNI) [8]; 1000 g/ha
  % phytotoxicity SOLNI: 100%
Solanum nigrum (SOLNI) [8]
  percentage damage caused to the plant, five-point scale, SOLNI: 5 (5=81-100%)
[9]; 500 g/ha
  % phytotoxicity IPOHE: 80%
[9]; 1000 g/ha
  % phytotoxicity IPOHE: 90%
[9]
  percentage damage caused to the plant, five-point scale, IPOHE: 5 (5=81-100%)
Setaria faberi (SETFA) [10]; 500 g/ha
  % phytotoxicity SETFA: 90%
Setaria faberi (SETFA) [10]; 1000 g/ha
  % phytotoxicity SETFA: 90%
Setaria faberi (SETFA) [10]
  percentage damage caused to the plant, five-point scale, SETFA: 4 (4=61-80%)
Lolium perenne (LOLPE) [11]; 500 g/ha
  % phytotoxicity LOLPE: 10%
Lolium perenne (LOLPE) [11]; 1000 g/ha
  % phytotoxicity LOLPE: 40%
Lolium perenne (LOLPE) [11]
  percentage damage caused to the plant, five-point scale, LOLPE: 1 (1=0-20%)
[12]; 500 g/ha
  % phytotoxicity ECHCG: 30%
[12]; 1000 g/ha
  % phytotoxicity ECHCG: 80%
[12]
  percentage damage caused to the plant, five-point scale, ECHCG: 5 (5=81-100%)

Source: patent US12319648B2, “Fluorinated phenylacetic acid derivatives in a weed control method” (SYNGENTA CROP PROTECTION AG, priority 2019, dated 2025)
